In patent publication US5138059A, “DC-89 compounds and process for their preparation” (priority 1988, dated 1992):
In brackets after ≈: the same amount, converted by molar mass.

Assays:
[1] = Acute toxicity (LD50), intraperitoneal, mice; conditions: mouse, in vivo, ip
Solubility = assay type: physicochemical
[2] = tested on: lymphocytic leukemia P388; assay: Therapeutical effect against lymphocytic leukemia P388; assay type: in vivo, male CDF1 mice
Procedure: Five male CDF1 mice each weighing about 22 g were used for each group, and 1×10^6 cells of lymphocytic leukemia P388 tumor cells were implanted intraperitoneally into the mice. Twenty-four hours after the implantation, 0.2 ml of PBS containing the DC-89 compound was intraperitoneally administered once. For comparison, 0.2 ml of PBS containing mitomycin C was intraperitoneally administered 24 hours after implantation of the tumor cells. The increased life span (T/C) [T: mean survival time (days) of the test groups, C: mean survival time (days) of the control group which received an intraperitoneal administration of 0.2 ml of PBS] after the implantation is shown in Table 4.

[3] = tested on: Klebsiella pneumoniae ATCC 10031; assay: Antibacterial activity, agar dilution method (MIC); assay type: cell-based; conditions: ATCC10031; Klebsiella pneumoniae ATCC 10031, agar dilution, pH 7; read-out: Minimum inhibitory concentration (MIC)
Procedure: (§1) The antibacterial activity was determined by the agar dilution method using a medium (pH 7) prepared by dissolving 3 g of Bacto-tryptone (Difco Laboratories), 3 g of meat extract, 1 g of yeast extract, 1 g of glucose and 16 g of agar in 1 liter of water.

[4] = tested on: Bacillus subtilis No. 10707; assay: Antibacterial activity, agar dilution method (MIC); assay type: cell-based; conditions: Bacillus subtilis No. 10707, agar dilution, pH 7; read-out: Minimum inhibitory concentration (MIC)
Procedure: as §1

[5] = tested on: Staphylococcus aureus ATCC 6538P; assay: Antibacterial activity, agar dilution method (MIC); assay type: cell-based; conditions: ATCC6538P, pH 7, read-out: Minimum inhibitory concentration (MIC)
Procedure: as §1

[6] = tested on: Salmonella typhi ATCC 9992; assay: Antibacterial activity, agar dilution method (MIC); assay type: cell-based; conditions: Salmonella enterica; Salmonella typhi ATCC 9992, agar dilution, pH 7; read-out: Minimum inhibitory concentration (MIC)
Procedure: as §1

Escherichia coli ATCC 26 = assay: Antibacterial activity, agar dilution method (MIC); assay type: cell-based; conditions: ATCC26; Escherichia coli ATCC 26, agar dilution, pH 7; read-out: Minimum inhibitory concentration (MIC)
Procedure: as §1

Sarcoma 180 solid tumor = assay: Therapeutical effect against Sarcoma 180 solid tumor; assay type: in vivo, ddY male mice; conditions: 10 days after implantation
Procedure: Six ddY male mice each weighing about 20 g were used for each group, and 5×10^6 Sarcoma 180 solid tumor cells were implanted subcutaneously into the mice at the axilla. Twenty-four hours after the implantation, 0.2 ml of a phosphate buffer saline (hereinafter referred to as PBS) containing the DC-89 compound in the concentration shown in Table 3 was intraperitoneally administered once.
The composition of PBS was 0.8 g/dl NaCl, 0.02 g/dl KCl, […] Na2 HPO4 and 0.02 g/dl KH2 PO4 (pH 7.2).
For comparison, 0.2 ml of PBS containing mitomycin C was intraperitoneally administered 24 hours after implantation of the tumor cells.
Ten days after the implantation, T/C [T: average tumor volume (mm^3) of the test groups, C: average tumor volume (mm^3) of the control group which received an intraperitoneal administration of 0.2 ml of PBS] was determined.

[7] = in methanol, ethanol, ethyl acetate, acetone, chloroform and dimethylsulfoxide
[8] = 4 mg/kg, i.p. 24 h after implantation

Row | SMILES | LD50 [1] [mg/kg] | Solubility (Solubility; [7]) | Solubility (Solubility; in water and n-hexane) | Increased Life Span (T/C) (mean survival time) ([2]; 0.125 mg/kg, i.p. once 24 h after implantation) | MIC [3] [µg/mL] | MIC [4] [µg/mL] | MIC [5] [µg/mL] | MIC [6] [µg/mL] | MIC (Escherichia coli ATCC 26) [µg/mL] | T/C (average tumor volume) (Sarcoma 180 solid tumor; 3 mg/kg, i.p. once 24 h after implantation) | Increased Life Span (T/C) (mean survival time) ([2]; 0.0156 mg/kg, i.p. once 24 h after implantation) | T/C (average tumor volume) (Sarcoma 180 solid tumor; 0.5 mg/kg, i.p. once 24 h after implantation) | Increased Life Span (T/C) (mean survival time) ([2]; 0.0781 mg/kg, i.p. once 24 h after implantation) | T/C (average tumor volume) (Sarcoma 180 solid tumor; 0.25 mg/kg, i.p. once 24 h after implantation) | Increased Life Span (T/C) (mean survival time) [2, 8] | T/C (average tumor volume) (Sarcoma 180 solid tumor; [8])
1 | COC(=O)C1(C)Nc2c(O)cc3c(c2C1=O)C(CCl)CN3C(=O)c1cc2cc(OC)c(OC)c(OC)c2[nH]1 (centres unmarked) [DC-89A2] | ~3.83 | readily soluble | sparingly soluble | 1.35 | 0.42 (≈ 0.772 µM) | 0.0065 (≈ 0.0119 µM) | 0.052 (≈ 0.0956 µM) | 10.4 (≈ 19.1 µM) | 5.2 (≈ 9.56 µM) | 0.19 |  |  |  |  |  | 
2 | COC(=O)C1(C)Nc2c(O)cc3c(c2C1=O)CC(Br)CN3C(=O)c1cc2cc(OC)c(OC)c(OC)c2[nH]1 (centres unmarked) [DC-89B1] | ~0.37 | readily soluble | sparingly soluble |  | 0.026 (≈ 0.0442 µM) | 0.013 (≈ 0.0221 µM) | 0.0008 (≈ 0.00136 µM) | 1.3 (≈ 2.21 µM) | 0.33 (≈ 0.561 µM) |  | 1.35 | 0.22 |  |  |  | 
3 | COC(=O)C1(C)Nc2c(O)cc3c(c2C1=O)C(CBr)CN3C(=O)c1cc2cc(OC)c(OC)c(OC)c2[nH]1 (centres unmarked) [DC-89B2] | ~0.28 | readily soluble | sparingly soluble |  | 0.1 (≈ 0.17 µM) | 0.0033 (≈ 0.00561 µM) | 0.0033 (≈ 0.00561 µM) | 2.6 (≈ 4.42 µM) | 1.3 (≈ 2.21 µM) |  |  |  | 1.19 | 0.28 |  | 
4 | CO[C@@]12[C@H](COC(N)=O)C3=C(C(=O)C(C)=C(N)C3=O)N1C[C@@H]1N[C@@H]12 [Mitomycin C, mitomycin C, reference compound] |  |  |  |  |  |  |  |  |  |  |  |  |  |  | 1.66 | 0.30
